Holding throughout (experiment): DTP human tumour cell line panel, 48 h
Assay [1] relates to K-562 leukemia.
In assay [2] the test system is UACC-62 melanoma.
In assay [3] the test system is A498 renal.
For assay [4], the system named is SK-MEL-5 melanoma.
In assay [5] the test system is NCI-H226 lung.
Assay [6] relates to PC-3 prostate.
Assay [7] deals with NCI/ADR-RES ovarian.
Assay [8] has as its system SN12C renal.
Assay [9] deals with HCC-2998 colon.
Assay [10] deals with HOP-92 NSCLC.
Assay [11] concerns DU-145 prostate.
Assay [12] concerns OVCAR-4 ovarian.
The subject of assay [13] is SF-295 CNS.
Assay [14] deals with TK-10 renal.
For assay [15], the system named is SNB-75 CNS.
In assay [16] the test system is HOP-62 NSCLC.
Assay [17] has as its system SNB-19 CNS.

Molecules are shown by their SMILES.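 1) Cells in 96-well plates. 2) Compound, 48 h, 5 concentrations. 3) Linear interpolation between surrounding doses. 4) Unreached endpoint = highest concentration. TGI: concentration producing complete growth inhibition.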 Where only a bound is given, the exact number is not on record here.

For the compound `COc1cccc(Nc2nc(N)nc(N)c2N)c1`, the TGI is > 100 µM in assay [1]; > 100 µM in assay [2]; > 100 µM in assay [3]; 88.2 µM in assay [4]; > 100 µM in assay [5]; > 100 µM in assay [6]. Moreover, the TGI is > 100 µM in assay [7]; 37.8 µM in assay [8]; > 100 µM in assay [9]; > 100 µM in assay [10]; > 100 µM in assay [11]; > 100 µM in assay [12]. The TGI in [13] is 60.7 µM; in assay [14] it was > 100 µM; in assay [15] it was > 100 µM; in assay [16], > 100 µM; in assay [17] it was > 100 µM.
Consider `CN(C(=O)C1=CCC2(CC1)OCCO2)c1ccccc1I`, for which the TGI in assay [1], in assay [2], in assay [3], in assay [4], in [5] and in [6] was > 100 µM in each case. Moreover, the TGI in [7], in assay [8], in assay [9], in assay [10], in assay [11] and in assay [12] was > 100 µM each time. Further, the TGI in assay [13], in assay [14], in [15], in assay [16] and in [17] was > 100 µM in each case.
As to `CCS(=O)(=O)CCn1c(=O)c2c(ncn2C)n(C)c1=O`, the TGI in assay [1], in assay [2], in assay [3], in assay [4], in assay [6] and in assay [7] was > 100 µM each time. Moreover, the TGI in assay [8], in [9], in assay [10], in [11], in assay [12] and in assay [13] was > 100 µM in each case. Further, the TGI in [14], in assay [15], in assay [16] and in assay [17] was > 100 µM in each case.
Consider `O=C1c2c(ccc3c2CCC3)CC12Cc1ccccc1C2`, for which the TGI in [1] is 79.3 µM; in assay [3], 96.2 µM; in [4], 24.3 µM; in assay [5], 62.8 µM; in assay [6] it was > 100 µM; in [7], > 100 µM. The TGI in assay [8] was > 100 µM; in [9], 89 µM; in [10] it was 41 µM; in assay [11], > 100 µM; in assay [12], > 100 µM; in [13] it was > 100 µM. Moreover, the TGI is > 100 µM in assay [14], 91.1 µM in assay [15], > 100 µM in [16] and > 100 µM in assay [17].
For the compound `CCNC12CCC(C1)C(C)(C)C2=O` (stereo not drawn), the TGI in assay [1], in assay [2], in [3], in [4], in assay [5] and in [6] was > 100 µM in each case. In addition, the TGI in assay [7], in assay [8], in [9], in [10], in assay [11] and in [12] was > 100 µM throughout. Further, the total growth inhibition concentration (TGI) in assay [13], in assay [14], in [15], in [16] and in assay [17] was > 100 µM in each case.
Consider `Oc1c(Br)cc(/C=C/c2cccc(/C=C/c3cc(Br)c(O)c(Br)c3)n2)cc1Br`, for which the TGI in [1] amounted to 23.7 µM; in assay [2], 41.8 µM; in [3] it was 25 µM; in assay [4] it was 19.8 µM; in assay [6], 25.1 µM; in assay [7], 85.6 µM. In addition, the TGI was found to be 24.3 µM in assay [8]; 18.8 µM in assay [9]; 29.6 µM in assay [10]; 14.1 µM in assay [11]; 35.7 µM in [12]; 47.4 µM in [13]. Also, the TGI was 56.3 µM in [14], 31.6 µM in assay [15], > 100 µM in assay [16] and 29.4 µM in assay [17].
On to `O=S(=O)(SC1=NCCN1)c1cccc2ccccc12`, for which the TGI in assay [1] was 63.5 µM; in assay [2] it was > 100 µM; in assay [3], 89.7 µM; in [4], 43 µM; in [5] it was 73 µM; in [6] it was > 100 µM. For the same compound, the TGI in assay [7] is > 100 µM; in assay [8], 48.1 µM; in [9], > 10 µM; in assay [10], > 100 µM; in [11] it was > 100 µM; in assay [12] it was > 100 µM. Also, the TGI in assay [13] is 51.2 µM; in assay [15], 46 µM; in assay [16], > 100 µM; in [17], 83.7 µM.
As for `COc1nc2c(c(=O)n1C)N=C(c1ccccc1)[C@H](C(CC(=O)c1ccccc1)c1ccccc1)C(c1ccccc1)N2` (stereo partly drawn), the TGI in assay [1], in [2], in [3], in [4], in assay [5] and in [6] was > 100 µM in each case. Also, the TGI in assay [7], in assay [8], in [9], in assay [10], in [11] and in [12] was > 100 µM each time. Moreover, the TGI in assay [13] was > 100 µM; in [15], 44.5 µM; in assay [16] it was > 100 µM; in [17], > 100 µM.
In the case of `CC1CN(c2cc3c(cc2F)c(=O)c(C(=O)O)cn3-c2ccc(F)cn2)CC(C)N1` (stereo not drawn), the TGI in assay [1], in [2], in assay [3], in [5], in assay [6] and in [7] was > 100 µM each time. For the same compound, the total growth inhibition concentration (TGI) in assay [8], in assay [10], in assay [11], in [12], in assay [13] and in assay [14] was > 100 µM throughout. Besides, the TGI in assay [15], in [16] and in assay [17] was > 100 µM throughout.
With `CCOC(=O)c1c(C)n([O-])c2cc(Cl)c(Cl)cc2[n+]1=O`, the TGI in assay [1] is > 100 µM; in [2], 32.5 µM; in assay [3], 58 µM; in [4], 36.5 µM; in [5], 33.5 µM; in assay [6] it was > 100 µM. For the same compound, the TGI amounted to 66.6 µM in [7]; 51.9 µM in [8]; 29.1 µM in [9]; 33.2 µM in assay [10]; 30.8 µM in assay [11]; 33.9 µM in assay [12]. Besides, the TGI in assay [13] is > 100 µM; in assay [14], 54.8 µM; in [16] it was 57.8 µM; in assay [17], > 100 µM.
Turning to `O=C(O)CCC(N=NNc1ccc(-c2nc3ccccc3[nH]2)cc1)C(=O)O` (stereo not drawn), the TGI in assay [1], in [3], in assay [4], in assay [5], in assay [6] and in assay [7] was > 100 µM each time. The TGI in assay [8] was > 100 µM; in assay [10] it was > 100 µM; in [11], > 100 µM; in [12], > 100 µM; in [13], 73.2 µM; in assay [14], > 100 µM. The TGI in [15], in [16] and in assay [17] was > 100 µM in each case.
As for `Cc1ccc(OCC2OC(n3cnc4c(Cl)nc(Cl)nc43)CC2Oc2ccc(C)cc2)cc1` (stereo not drawn), the TGI in [2] was 4.1 µM; in [3] it was 44.8 µM; in [4], 19.2 µM; in assay [5], 14.3 µM; in assay [6], 6.57 µM; in assay [7], 4.37 µM. Besides, the TGI was found to be 17.9 µM in assay [8]; 30.8 µM in [9]; 6.4 µM in assay [10]; 3.84 µM in assay [11]; 4.45 µM in assay [12]; 5.42 µM in assay [13]. In addition, the TGI in [14] amounted to 23.3 µM; in assay [15], 5.39 µM; in [16] it was 7.37 µM; in assay [17], 3.3 µM.
`Clc1ccc(OCc2nnc3sc(-c4ccc(-c5ccc(Cl)cc5Cl)o4)nn23)cc1`: the TGI in assay [1], in assay [3], in assay [4], in assay [5], in assay [6] and in assay [7] was > 100 µM in each case. The TGI in [8], in assay [10], in [11], in [12], in [13] and in assay [14] was > 100 µM each time. Further, the values for the TGI in [15], in assay [16] and in [17] were 31.3 µM, > 100 µM and > 100 µM, respectively.
As for `O=C1OC(C2(O)OC(=O)c3ccccc32)c2ccccc21` (stereo not drawn), the TGI in assay [2], in assay [3], in assay [4], in [5], in assay [6] and in assay [7] was > 100 µM in each case. The TGI in [8], in [9], in [10], in assay [11], in [12] and in assay [13] was > 100 µM each time. The TGI in assay [14], in assay [15], in assay [16] and in [17] was > 100 µM each time.
For `COc1ccc(NC(C)=O)c(C(O)CCNC(C)=O)c1` (stereo not drawn), the TGI in assay [2], in [3], in [4], in assay [5], in assay [6] and in [7] was > 100 µM throughout. In addition, the TGI in assay [8], in assay [10], in assay [11], in [12], in assay [13] and in assay [14] was > 100 µM in each case. Also, the TGI in assay [15] and in [17] was > 100 µM in each case.
Regarding `CCOC(=O)c1cc(Br)c(-c2cc(C)no2)[nH]1`, the TGI in assay [2] is > 100 µM; in [3], 75.6 µM; in assay [4], 47.5 µM; in [5], > 100 µM; in assay [6], > 100 µM; in assay [7], > 100 µM. In addition, the TGI in assay [8] was > 100 µM; in assay [10], > 100 µM; in assay [11], 73.8 µM; in assay [12], 63 µM; in [13], > 100 µM; in assay [14], > 100 µM. The TGI in assay [15] and in assay [17] was > 100 µM each time.
With `COC(=O)C(COC(=O)/C=C/c1ccc(OC(C)=O)c(OC(C)=O)c1)NC(=O)/C=C/c1ccc(OC(C)=O)c(OC(C)=O)c1` (stereo not drawn), the TGI in [1] is > 100 µM; in assay [2], 35.1 µM; in assay [3], > 100 µM; in [4] it was 29.7 µM; in [5], > 100 µM; in [6], 32.6 µM. The TGI is > 100 µM in assay [7]; 45.4 µM in assay [8]; 47.3 µM in [9]; > 100 µM in [10]; 45.2 µM in [11]; 62.8 µM in assay [12]. Moreover, the values for the TGI in [15], in [16] and in assay [17] were > 100 µM, 80.4 µM and > 100 µM, respectively.
As to `COc1ccc(C2=C(N)c3ncccc3C2=O)cc1`, the TGI in assay [1], in assay [2], in assay [3], in assay [5], in [6] and in assay [7] was > 100 µM each time. In addition, the TGI was > 100 µM in assay [8]; > 100 µM in [9]; > 10 µM in assay [10]; > 100 µM in assay [11]; > 100 µM in assay [12]; > 100 µM in assay [13]. In addition, the TGI was > 10 µM in [14], > 100 µM in assay [15], > 100 µM in [16] and > 100 µM in [17].

These data come from PubChem BioAssay (NCI).
